Measurements taken from US7879814B2, “Methods and therapeutic compositions in the treatment of advanced cancer” (priority 2003, dated 2011).
Read-outs that look alike come from different tables or passages of the source.

Key:
[1] = test system: patients with advanced malignancies (solid tumors); experiment: Phase I study of ATP by 8 hour intravenous infusion once weekly, out-patient (DMS #D0005): safety, tolerability, clinical efficacy; assay type: in vivo, human
Protocol: Adenosine 5′-triphosphate (ATP) is provided as a sterile solution in single use vials. […] Storage of the clinical solutions is at controlled refrigerated temperature (2-8° C.). […] The concentration of the final sterile solution is 8 mg/ml and is administered by continuous intravenous infusions using an Ivac or similar infusion device through venous access in a peripheral vein. If venous access is a problem, either a Hickman catheter or its equivalent or an Infusaport or its equivalent, are inserted to provide vascular access. […] All follow-up care is administered in hospital outpatient department or at the patient's home or clinic.
Title of the Study: “A Phase I Study of the Safety and Pharmacokinetics of Adenosine 5′-Triphosphate (ATP) When Administered by Intravenous Infusion on a Multiple Weekly Dose Schedule to Patients with Advanced Malignancies (Solid Tumors)”.
Nine qualified patients have been enrolled in the study as of Jan. 1, 2002; seven of which received the first 3 cycles of the study drug and are therefore evaluable for the primary endpoints. Two of the seven evaluable patients had advanced prostate cancer with bone metastases and one each had advanced mesothelioma, metastatic breast cancer, metastatic melanoma, metastatic colon cancer and renal cell carcinoma.

[2] = cited from earlier work; for whole blood ATP concentration higher than pretreatment value (average): 24 hours of infusion
[3] = test system: stage IIIB/IV non-small cell lung cancer patients; settings: cited from earlier work
[4] = test system: refractory stage IIIB/IV non-small cell lung cancer patients; settings: cited from earlier work
[5] = Pharmacokinetics of ATP on weeks (cycles) 1, 3 and 8 of the Phase I study; assay type: in vivo, human
Description: Two of the seven evaluable patients had advanced prostate cancer with bone metastases and one each had advanced mesothelioma, metastatic breast cancer, metastatic melanoma, metastatic colon cancer and renal cell carcinoma.

[6] = test system: men with advanced, non-resectable cancer; settings: cited from earlier work
[7] = week 1 pre-dose to week 13 follow-up
[8] = 50 or 65 mcg/kg/min, 96 hours once every 4 weeks, 15 patients
[9] = 50 or 65 mcg/kg/min, 96 hours once every 4 weeks
[10] = 30-hours infusions, 20 up to 75 mcg/kg/min
[11] = 50, 75 or 100 mcg/kg/min, 96 hr infusion once every 4 weeks

SMILES: Nc1ncnc2c1ncn2[C@@H]1O[C@H](COP(=O)(O)OP(=O)(O)OP(=O)(O)O)[C@@H](O)[C@H]1O [ATP, Adenosine 5′-triphosphate]
- grade 2 cardiac ischemia or grades 3 or 4 toxicity ([1]; 8 hour iv infusion once weekly, up to 100 mcg/kg/min): No grade 2 cardiac ischemia or grades 3 or 4 toxicity have been observed
- appetite loss ([1]; all patients, screening to week 10 (follow-up), return to screening baseline at week 13): Decreases
- SGOT, SGPT and serum LDH ([1]; all patients, week 1 (pre-dose) to week 13 (follow-up)): Consistent decreases
- maximum allowable dose tolerated ([1]; continuous 8 hours iv infusion once weekly for eight weeks, seven of nine patients (the seven evaluable)): 100 µg/kg/min
- appetite and energy (subjective patient comments) ([1]; during the study, several patients): improved appetite and energy
- tolerability in terminal patients ([1]; patient 506): well tolerated
- Global Health Status of the QOL EORTC QLQ-C30 ([1]; screening (week <1) to follow-up (week 10), decline at week 13 follow-up): Increases
- Skeletal Muscle Strength (voluntary) ([1]; screening (week <1) to week 8 (last infusion cycle)): Small increases
- Kamofsky Performance Status [1, 7]: Small increases
- body weight [1, 7]: Stabilization
- whole blood ATP concentration higher than pretreatment value (average) ([2]; 50 mcg/kg/min): 63%
- whole blood ATP concentration higher than pretreatment value (average) ([2]; 75 mcg/kg/min): 67%
- whole blood ATP concentration higher than pretreatment value (average) ([2]; 100 mcg/kg/min): 113%
- course of blood ATP concentrations ([2]; interval between 24 and 96 hours of the infusion): relatively constant or slightly declined
- patients reporting severe (grade 3) adverse effects [3, 8]: Six
- patients with life-threatening (grade 4) dyspnea [3, 8]: two
- disease status after treatment [3, 9]: the majority of patients exhibited stable disease
- hematologic, renal, hepatic, or gastrointestinal toxicity [3, 9]: No significant
- tumor shrinking [3, 9]: no significant tumor shrinking was observed
- effects on weight gain, performance status and overall survival ([3]; non-small cell lung cancer patients): beneficial effects
- adverse events of grade 1 (mild) [4, 10]: 81
- adverse events of grade 2 (moderate) [4, 10]: 5
- adverse events of grade 3 (severe) [4, 10]: none
- adverse events of grade 4 (life threatening) [4, 10]: 5
- electrocardiograms in patients with chest discomfort ([4]; 30-hours infusions): did not exhibit changes suggestive of myocardial ischemia
- effects on body weight, voluntary muscle strength and Quality of Life domains ([4]; ATP plus best supportive care vs best supportive care only): beneficial effects
- resolution of side effects ([4]; after lowering the rate of ATP infusion): resolved within minutes
- total blood ATP pools after infusion ([5]; at 24 hours): decline to baseline (time 0)
- average increases in Initial ATP Release Rates (from Red Blood Cells) ([5]; time 0 to 8 hours): 200-400%
- increases in total blood ATP pools (red blood cell pools) ([5]; time 0 to 8 hours (end of the infusions)): 70-90%
- share of all adverse events that were grade 1 or 2 (mild or moderate) [6, 11]: 79%
- share of all adverse events that were grade 3 or 4 (severe or life-threatening) [6, 11]: 21%
- maximum tolerated dose ([6]; 96-hours infusions, patients with advanced cancers): 50 µg/kg/min
- events of grade 3 anxiety ([6]; 96 hr infusions): one
- events of grade 3 headache ([6]; 96 hr infusions): 1 event
- grade 3 or 4 events of chest pain ([6]; 96 hr infusions): 5 events
- grade 3 or 4 events of dizziness ([6]; 96 hr infusions): 1 event
- grade 3 or 4 events of dyspnea ([6]; 96 hr infusions): 6 events
- grade 3 or 4 events of hypotension ([6]; 96 hr infusions): 1 event
- grade 3 or 4 events of hypoxia ([6]; 96 hr infusions): 2 events
- grade 3 or 4 events of nausia/emesis ([6]; 96 hr infusions): 2 events
